Values joined by “and” are separate entries in the source; they are usually repeats but may differ in a detail not shown here. Identical values can stand only once. Like-named read-outs stand apart in the source and are kept apart here.
Columns and labels:
seizures [1] = settings: mice, after pro-convulsant drugs or an electric current; cited from earlier work
seizures [2] = settings: 200 mg/day pure CBD, four adult patients; cited from earlier work
[3] = test system: D. discoideum growth upon R. planticola bacterial plates; experiment: Bacterial plate screen; format: cell-based, Dictyostelium discoideum; settings: CBDA 12.3 μM, CBD 16.7 μM; 4 days
Method: Heat killed (75° C. for 30 minutes) R. planticola was spread onto the plates and ˜50 wild-type A×2 cells were added and left to grow at 22° C. Plates were checked regularly for colonies.

[4] = Toxicokinetics from toxicological studies in dogs, daily oral (gavage) administration; format: in vivo, dog; settings: for Vd/F: read-out: Vz/F
Method: Samples were taken from the jugular vein into lithium heparin. Samples were mixed gently by hand then continuously for at least 2 minutes on automatic mixer and placed in a Kryorack until centrifugation, which was carried out at approximately 4° C. as soon as practicable. The resultant plasma was separated under low light conditions, transferred to uniquely labelled clear glass vials, placed in light proof boxes and frozen immediately at <−50° C.

generalized epilepsy = settings: eight adult patients with generalized epilepsy; cited from earlier work
[5] = test system: PTZ-induced generalised seizures; experiment: Acute PTZ-induced model of generalised seizure; format: in vivo, rat
Method: Adult male Wistar Kyoto rats were used in the acute PTZ model of seizure (>P24, 70-110 g). Animals were housed five per cage in a heat regulated room (21° C.) on a 12:12 h day/night cycle (lights on 0800) in 50% humidity and given ad libitum access to standard laboratory chow (PCD Mod C, Special Diet Services, Wiltham, UK) and water. All procedures were undertaken during white light hours.
A PTZ (Sigma-Aldrich, Poole, UK) stock solution was made in 0.9% w/v NaCl for the experimental procedure.
PTZ antagonises GABA inhibition via binding to the t-butyl-bicycl-phosphorothionate site of GABAA receptors. Moreover, this chemically-induced model can be indicative of effects against absence seizures. PTZ (90 mg/kg) was used to induce seizures in adult male Wistar rats (n=15 per group) with experiment dose randomised using a Latin square design. Animals were placed in their 6 L Perspex tanks and allowed to acclimatise to their environment for 10 min, before receiving one of the cannabinoid doses (see Table 5) in vehicle, or volume-matched dose of vehicle alone to serve as a negative control. 60 min after test compound or vehicle administration, animals were injected with PTZ (90 mg/kg, i.p.) to induce seizures and animal behaviour was recorded for 30 min.
Videos of PTZ-induced seizures were scored offline with a standard seizure severity scale appropriate for generalised seizures (Table 6).
Videos of seizure behaviour generated from the custom built observational system were scored offline according to seizure scales appropriate for PTZ model (Table 6) using Observer Video-Pro software (Noldus, Wageningen, The Netherlands). For the PTZ model of seizure, intra- and inter-observer agreements of behaviour scoring were assessed using the reliability analysis function of the observer Video-Pro software: 1 s tolerance window; Cohen's Kappa coefficient≥0.95.
Specific markers of seizure behaviour and development were assessed and compared between vehicle control and drug groups. The latency (s) to seizure onset and the percentage of animals that developed tonic-clonic seizures was noted (see Table 6). In addition, the maximum seizure severity and the percentage mortality in each group were determined for the acute PTZ model of generalised seizure.
The effect of drug on latency to seizure onset and maximum seizure severity were assessed using Krustal-Wallis with post-hoc Mann-Whitney U-tests. Drug effects on the percentage of animals that developed tonic-clonic seizures and percentage mortality were assessed using Chi-squared with post-hoc Fisher exact tests. In all cases, P≤0.05 was considered significant.

[6] = CBD 100 mg/kg oral, Day 1, females, Max
[7] = CBD 100 mg/kg oral, Day 1, females, Min
[8] = CBD 100 mg/kg oral, Day 1, females, individual animals (Subjects 115-120)
[9] = CBD 100 mg/kg oral, Day 1, males, Max
[10] = CBD 100 mg/kg oral, Day 1, males, Min
[11] = CBD 100 mg/kg oral, Day 1, males, individual animals (Subjects 15-20)

C=C(C)[C@@H]1CCC(C)=C[C@H]1c1c(O)cc(CCCCC)cc1O [CBD, Cannabidiol]
prevention of seizures (seizures [1]): able to prevent seizures in mice
seizure freedom (seizures [2]): two of the four patients became seizure free
cell survival (colony number) compared to control (solvent only) [3]: No difference in colony number
tl/2 ([4]; CBD 100 mg/kg oral, Day 1, females, Geometric Mean): 5.9 h
AUC0-inf [4, 6]: 32.8 µg·h/mL
AUC0-t [4, 6]: 32.4 µg·h/mL
CL/F [4, 6]: 37.9 L/h/kg
Cmax [4, 6]: 3.78 µg/mL
tl/2 [4, 6]: 8.4 h
tmax [4, 6]: 8.0 h
tl/2 ([4]; CBD 100 mg/kg oral, Day 1, females, Mean, N=4): 6.1 h
tl/2 ([4]; CBD 100 mg/kg oral, Day 1, females, Median): 5.7 h
AUC0-inf [4, 7]: 2.64 µg·h/mL
AUC0-t [4, 7]: 2.54 µg·h/mL
CL/F [4, 7]: 3.05 L/h/kg
Cmax [4, 7]: 0.411 µg/mL
tl/2 [4, 7]: 4.5 h
tmax [4, 7]: 1.0 h
AUC0-inf [4, 8]: 32.8 µg·h/mL and 3.28 µg·h/mL and 22.4 µg·h/mL and 2.64 µg·h/mL
AUC0-t [4, 8]: 31.3 µg·h/mL and 3 µg·h/mL and 20 µg·h/mL and 22.6 µg·h/mL and 2.54 µg·h/mL and 32.4 µg·h/mL
CL/F [4, 8]: 3.05 L/h/kg and 30.5 L/h/kg and 4.47 L/h/kg and 37.9 L/h/kg
Cmax [4, 8]: 3.78 µg/mL and 0.655 µg/mL and 2.52 µg/mL and 1.9 µg/mL and 0.411 µg/mL and 3.27 µg/mL
tl/2 [4, 8]: 4.7 h and 8.4 h and 6.6 h and 4.5 h
tmax [4, 8]: 2.0 h and 8.0 h and 1.0 h
tl/2 ([4]; CBD 100 mg/kg oral, Day 1, males, Geometric Mean): 7.0 h
AUC0-inf [4, 9]: 60.5 µg·h/mL
AUC0-t [4, 9]: 51.8 µg·h/mL
CL/F [4, 9]: 4.93 L/h/kg
Cmax [4, 9]: 4.57 µg/mL
tl/2 [4, 9]: 8.6 h
tmax [4, 9]: 8.0 h
tl/2 ([4]; CBD 100 mg/kg oral, Day 1, males, Mean, N=5): 7.2 h
tl/2 ([4]; CBD 100 mg/kg oral, Day 1, males, Median): 7.7 h
AUC0-inf [4, 10]: 20.3 µg·h/mL
AUC0-t [4, 10]: 17.2 µg·h/mL
CL/F [4, 10]: 1.65 L/h/kg
Cmax [4, 10]: 1.4 µg/mL
tl/2 [4, 10]: 5.4 h
AUC0-inf [4, 11]: 55.3 µg·h/mL and 60.5 µg·h/mL and 20.3 µg·h/mL and 31.1 µg·h/mL
AUC0-t [4, 11]: 47.3 µg·h/mL and 51.8 µg·h/mL and 33 µg·h/mL and 17.2 µg·h/mL and 28.7 µg·h/mL and 26.4 µg·h/mL
CL/F [4, 11]: 1.81 L/h/kg and 1.65 L/h/kg and 4.93 L/h/kg and 3.22 L/h/kg
Cmax [4, 11]: 3.96 µg/mL and 4.57 µg/mL and 3.62 µg/mL and 1.4 µg/mL and 2.43 µg/mL and 3.09 µg/mL
tl/2 [4, 11]: 8.6 h and 7.7 h and 5.4 h and 8.5 h and 5.7 h
tmax [4, 11]: 8.0 h
AUC0-inf ([4]; female, dog, plasma, po, 100 mg/kg, CBD 100 mg/kg oral, Day 1, females, Geometric Mean, read-out: AUC0-inf): 8.93 µg·h/mL
AUC0-t ([4]; female, dog, plasma, po, 100 mg/kg, CBD 100 mg/kg oral, Day 1, females, Geometric Mean, read-out: AUC0-t): 12.3 µg·h/mL
CL/F ([4]; female, dog, plasma, po, 100 mg/kg, CBD 100 mg/kg oral, Day 1, females, Geometric Mean, read-out: CL/F): 11.2 L/h/kg
Cmax ([4]; female, dog, plasma, po, 100 mg/kg, CBD 100 mg/kg oral, Day 1, females, Geometric Mean, read-out: Cmax): 1.59 µg/mL
Vd/F ([4]; female, dog, plasma, po, 100 mg/kg, CBD 100 mg/kg oral, Day 1, females, Geometric Mean): 94.8 L/kg
AUC0-inf ([4]; female, dog, plasma, po, 100 mg/kg, CBD 100 mg/kg oral, Day 1, females, Mean, N=4, read-out: AUC0-inf): 15.3 µg·h/mL
CL/F ([4]; female, dog, plasma, po, 100 mg/kg, CBD 100 mg/kg oral, Day 1, females, Mean, N=4, read-out: CL/F): 19 L/h/kg
Vd/F ([4]; female, dog, plasma, po, 100 mg/kg, CBD 100 mg/kg oral, Day 1, females, Mean, N=4): 169 L/kg
AUC0-t ([4]; female, dog, plasma, po, 100 mg/kg, CBD 100 mg/kg oral, Day 1, females, Mean, N=6, read-out: AUC0-t): 18.6 µg·h/mL
Cmax ([4]; female, dog, plasma, po, 100 mg/kg, CBD 100 mg/kg oral, Day 1, females, Mean, N=6, read-out: Cmax): 2.09 µg/mL
AUC0-inf ([4]; female, dog, plasma, po, 100 mg/kg, CBD 100 mg/kg oral, Day 1, females, Median, read-out: AUC0-inf): 12.8 µg·h/mL
AUC0-t ([4]; female, dog, plasma, po, 100 mg/kg, CBD 100 mg/kg oral, Day 1, females, Median, read-out: AUC0-t): 21.3 µg·h/mL
CL/F ([4]; female, dog, plasma, po, 100 mg/kg, CBD 100 mg/kg oral, Day 1, females, Median, read-out: CL/F): 17.5 L/h/kg
Cmax ([4]; female, dog, plasma, po, 100 mg/kg, CBD 100 mg/kg oral, Day 1, females, Median, read-out: Cmax): 2.21 µg/mL
Vd/F ([4]; female, dog, plasma, po, 100 mg/kg, CBD 100 mg/kg oral, Day 1, females, Median): 145 L/kg
tmax ([4]; female, dog, plasma, po, 100 mg/kg, CBD 100 mg/kg oral, Day 1, females, Median, read-out: tmax): 4 h
AUC0-t ([4]; female, dog, plasma, po, 100 mg/kg, comparative Table 11, females, 100 mg/kg, Day 1, mean, read-out: AUC0-t): 18.6 µg·h/mL
Cmax ([4]; female, dog, plasma, po, 100 mg/kg, comparative Table 11, females, 100 mg/kg, Day 1, mean, read-out: Cmax): 2.09 µg/mL
AUC0-inf ([4]; male, dog, plasma, po, 100 mg/kg, CBD 100 mg/kg oral, Day 1, males, Geometric Mean, read-out: AUC0-inf): 37.6 µg·h/mL
AUC0-t ([4]; male, dog, plasma, po, 100 mg/kg, CBD 100 mg/kg oral, Day 1, males, Geometric Mean, read-out: AUC0-t): 31.9 µg·h/mL
CL/F ([4]; male, dog, plasma, po, 100 mg/kg, CBD 100 mg/kg oral, Day 1, males, Geometric Mean, read-out: CL/F): 2.66 L/h/kg
Cmax ([4]; male, dog, plasma, po, 100 mg/kg, CBD 100 mg/kg oral, Day 1, males, Geometric Mean, read-out: Cmax): 2.97 µg/mL
Vd/F ([4]; male, dog, plasma, po, 100 mg/kg, CBD 100 mg/kg oral, Day 1, males, Geometric Mean): 27 L/kg
AUC0-inf ([4]; male, dog, plasma, po, 100 mg/kg, CBD 100 mg/kg oral, Day 1, males, Mean, N=5, read-out: AUC0-inf): 40.5 µg·h/mL
CL/F ([4]; male, dog, plasma, po, 100 mg/kg, CBD 100 mg/kg oral, Day 1, males, Mean, N=5, read-out: CL/F): 2.89 L/h/kg
Vd/F ([4]; male, dog, plasma, po, 100 mg/kg, CBD 100 mg/kg oral, Day 1, males, Mean, N=5): 29.9 L/kg
AUC0-t ([4]; male, dog, plasma, po, 100 mg/kg, CBD 100 mg/kg oral, Day 1, males, Mean, N=6, read-out: AUC0-t): 34.1 µg·h/mL
Cmax ([4]; male, dog, plasma, po, 100 mg/kg, CBD 100 mg/kg oral, Day 1, males, Mean, N=6, read-out: Cmax): 3.18 µg/mL
AUC0-inf ([4]; male, dog, plasma, po, 100 mg/kg, CBD 100 mg/kg oral, Day 1, males, Median, read-out: AUC0-inf): 35.4 µg·h/mL
AUC0-t ([4]; male, dog, plasma, po, 100 mg/kg, CBD 100 mg/kg oral, Day 1, males, Median, read-out: AUC0-t): 30.8 µg·h/mL
CL/F ([4]; male, dog, plasma, po, 100 mg/kg, CBD 100 mg/kg oral, Day 1, males, Median, read-out: CL/F): 2.83 L/h/kg
Cmax ([4]; male, dog, plasma, po, 100 mg/kg, CBD 100 mg/kg oral, Day 1, males, Median, read-out: Cmax): 3.36 µg/mL
Vd/F ([4]; male, dog, plasma, po, 100 mg/kg, CBD 100 mg/kg oral, Day 1, males, Median): 22.3 L/kg
tmax ([4]; male, dog, plasma, po, 100 mg/kg, CBD 100 mg/kg oral, Day 1, males, Median, read-out: tmax): 6 h
tmax ([4]; male, dog, plasma, po, 100 mg/kg, CBD 100 mg/kg oral, Day 1, males, individual animals (Subjects 15-20), read-out: tmax): 6 h
AUC0-t ([4]; male, dog, plasma, po, 100 mg/kg, comparative Table 10, males, 100 mg/kg, Day 1, mean, read-out: AUC0-t): 34.1 µg·h/mL
Cmax ([4]; male, dog, plasma, po, 100 mg/kg, comparative Table 10, males, 100 mg/kg, Day 1, mean, read-out: Cmax): 3.18 µg/mL
reduction of seizures (generalized epilepsy): marked reduction of seizures in 4 of the patients
effect on percentage mortality ([5]; 100 mg/kg CBD (P≤0.01), 100 mg/kg CBDA (P=0.0656), CBD/CBDA ratio (P=0.0656)): significantly reduced
effect on latency to seizure onset ([5]; 100 mg/kg CBD (P≤0.05), CBD/CBDA 9:1 (P≤0.05), CBDA 100 mg/kg (P=0.0929)): significantly increasing latency to onset
median score for the maximum seizure severity ([5]; 100 mg/kg, PTZ 90 mg/kg i.p. 60 min after compound, scale of Table 6, n=15): 5

From patent publication US11684598B2, “Use of cannabinoids in the treatment of epilepsy” (priority 2015, dated 2023)
